According to publication PMC10016038, “Enhanced Endosomal Signaling and Desensitization of GLP-1R vs GIPR in Pancreatic Beta Cells” (Endocrinology, 2023):
Ends that are not written are not given here.

Tests used:
SNAP-tagged human GIPR [1] = test: Confocal microscopy of co-internalization with FITC agonist, SNAP-GIPR; type: cell-based
Description: (§1) Figure 1. Beta cell GLP-1R vs GIPR trafficking patterns. […] (B) Rates of GLP-1R vs GIPR internalization (k values) derived from (A) by one-phase association (with Y0 = 0) of baseline-deleted DERET data; n = 5. (C) GLP-1R vs GIPR internalization dose response curves measured by high-content microscopy assay (HCA) in the same cells as above. […] (F) Quantification of surface GLP-1R vs GIPR levels in WT mouse islets using fluorescent agonist uptake data from (E); data corrected for binding affinity differences between both agonists; n = 4. (G) GLP-1R vs GIPR recycling dose response curves measured by high-content microscopy assay (HCA) in cells from (C); n = 5. […] Nuclei (DAPI), blue. Data are mean ± SEM, compared by paired or unpaired t tests, or two-way ANOVA with Sidak's post hoc test; *P < .05, **P < .01, ***P < .001; size bars: 10 µm.
(§2) Finally, using alternative fluorescent conjugates labeled with TMR, the amount of TMR-labeled agonist intracellular accumulation during the first 5 minutes of stimulation for each receptor correlated with the previously shown receptor internalization results in INS-1 832/3 SNAP-GLP-1R/SNAP-GIPR cell lines (Supplemental Fig. 3A and 3B) ([32]).

SNAP-tagged human GIPR [2] = test: TMR agonist intracellular accumulation, INS-1 832/3 SNAP-GIPR; type: cell-based; conditions: 5 minutes poststimulation
Method: as §2

[3] = test system: endogenous GIPR in mouse islets; test: Confocal imaging of TMR agonist in mouse primary islets, GIPR; type: cell-based
Method: (§3) Nondiabetic mice of both sexes were used for islet isolation. Briefly, pancreata were infused via the common bile duct with RPMI-1640 medium containing 1 mg/mL collagenase from Clostridium histolyticum (Nordmark Biochemicals), dissected, and incubated in a water bath at 37 °C for 10 minutes. Islets were subsequently washed and purified using a Histopaque gradient (Histopaque-1119, 11191, Sigma-Aldrich, and Histopaque-1083, 10831, Sigma-Aldrich). Isolated islets were allowed to recover overnight at 37 °C in 5% CO2 in RPMI-1640 supplemented with 10% FBS and 1% penicillin/streptomycin. All procedures were carried out in accordance with the regulations of the UK Home Office Animals (Scientific Procedures) Act and the Imperial College London guidelines for animal care. Animal protocols were approved by the Home Office Animals in Science Regulation Unit (ASRU) under Project License number PP7151519 to Dr. A. Martinez-Sanchez.
as §1

[4] = test system: endogenous GLP-1R in mouse islets; test: Confocal imaging of TMR agonist in mouse primary islets, GLP-1R; type: cell-based; conditions: 100 nM GLP-1-TMR; 15 minutes
Method: as §3
Figure 1. […] (C) GLP-1R vs GIPR internalization dose response curves measured by high-content microscopy assay (HCA) in the same cells as above. […] (F) Quantification of surface GLP-1R vs GIPR levels in WT mouse islets using fluorescent agonist uptake data from (E); data corrected for binding affinity differences between both agonists; n = 4. (G) GLP-1R vs GIPR recycling dose response curves measured by high-content microscopy assay (HCA) in cells from (C); n = 5. […]

T2D patients = conditions: dual GLP-1R/GIPR targeting peptides; cited from earlier work
Description: Incretin receptors, comprising the glucagon-like peptide-1 receptor (GLP-1R) and the glucose-dependent insulinotropic polypeptide receptor (GIPR), are key components of the glucoregulatory system due to their capacity to prevent postprandial hyperglycemia by amplifying insulin secretion from pancreatic beta cells in a glucose-dependent manner ([1]). Since their discovery and cloning in the 1990s ([2-4]), both receptors have been recognized for their glucose lowering potential. However, while the GLP-1R has successfully been exploited for the treatment of type 2 diabetes (T2D), with several pha ...

GLP-1R = conditions: tirzepatide; cited from earlier work
Description: In summary, we have described here significant differences in the trafficking and spatiotemporal signaling propensities of the 2 incretin receptors following their stimulation with native agonists in beta cells. While the GLP-1R is a rapidly internalizing receptor with increased propensity for β-arrestin 2 recruitment, endosomal localization and activity, and lysosomal degradation, the GIPR is associated with reduced coupling to G proteins and β-arrestin 2, as well as reduced internalization and endosomal activity, increased recycling, and an overall increase in beta cell signaling despite hig ...

## GIP-FITC: fluorescein isothiocyanate (FITC) conjugate of GIP(1-42) (YAEGTFISDYSIAMDKIHQQDFVNWLLAQKGKKNDWKHNITQ; also: FITC conjugate, position not given here)
SNAP-tagged human GIPR [1]; 30 min, 100 nM GIP-FITC
  SNAP-GIPR endocytosis: only partial SNAP-GIPR endocytosis
SNAP-tagged human GIPR [1]; after 30 minutes of agonist stimulation
  Intracellular GIP-FITC signal accumulation: some intracellular GIP-FITC signal accumulation

## GIP-TMR: tetramethylrhodamine (TMR) conjugate of GIP(1-42) (YAEGTFISDYSIAMDKIHQQDFVNWLLAQKGKKNDWKHNITQ; also: TMR conjugate, position not given here)
SNAP-tagged human GIPR [2]
  Intracellular accumulation of TMR-labeled agonist: negligible
[3]; 100 nM, not shown
  GIP-TMR signal in islets at 100 nM: virtually undetectable
[3]; 1 µM GIP-TMR, 15 minutes
  Localization of TMR agonist in WT mouse primary islets: could be detected at the plasma membrane
[3]; dispersed mouse islet cells
  GIP-TMR uptake compared with GLP-1-TMR, dispersed mouse islet cells: markedly reduced
[3]; quantified in Fig. 1F, corrected for binding affinity differences, n = 4
  TMR agonist signal in WT islets, GIP-TMR vs GLP-1-TMR: significantly lower
[3]; same concentration of GIP-TMR as WT (1 µM), specificity control
  GIP-TMR signal at the plasma membrane, Gipr-/- (KO) islets: absent

## GLP-1-TMR: tetramethylrhodamine (TMR) conjugate of GLP-1(7-36)NH2 (HAEGTFTSDVSSYLEGQAAKEFIAWLVKGR-NH2; also: TMR conjugate, position not given here)
[4]
  Localization of TMR agonist in WT mouse primary islets: predominantly localized in punctate structures reminiscent of endosomes

## tirzepatide
T2D patients
  Efficacy compared with approved GLP-1R agonist monotherapies: enhanced efficacy
GLP-1R
  Internalization and β-arrestin 2 recruitment at the GLP-1R: reduced internalization and β-arrestin 2 recruitment at the GLP-1R
